We go through 28 molecules from patent US9701646B2, “Small molecule inhibitors of PI3-kinase signaling” (Tufts University, priority 2013, dated 2017).

Read-outs that look alike come from different tables or passages of the source. Where only a bound is given, the exact number is not on record here.

One may read the EC50 as the concentration at which the effect is half-maximal.

In data set [1] the test system is A2780 human ovarian cancer cells. Kind of data set: Cell viability of A2780 cells, ATP assay. Format: cell-based. As to conditions: A2780, 24 h; for EC50: Homo sapiens. As for the experimental part:
A2780 human ovarian cancer cells were maintained in culture at 37° C., 5% CO2, complete medium for 24 h in the presence of various final concentrations of DM-PIT-1, YK-NCL-176, YK-NCL-198, or NK-YCL-240, each in DMSO, with or without 1 μg/mL TRAIL. DMSO alone was used as a negative control. Following the incubation, cell viability was measured using an ATP assay.
A2780 human ovarian cancer cells were maintained in culture at 37° C., 5% CO2, complete medium for 24 h in the presence of various final concentrations of DM-PIT-1, YK-NCL-217, YK-NCL-218, NK-YCL-219, YK-NCL-220, YK-NCL-234, or YK-NCL-241, each in DMSO, with or without 1 μg/mL TRAIL. DMSO alone was used as a negative control. Following the incubation, cell viability was measured using an ATP assay.

A short description of data set [2]: Micellar drug loading by reverse phase HPLC. The following applies: PEG-PE micelles, PEG-PE 13.07 mg/mL, n = 3 with SD. Type of data set: physicochemical. As for the experimental part: Drug incorporation efficiency was measured by reverse phase HPLC using an Xbridge C18 ([…]) column (Waters Corporation, Milford, Mass.) on a Hitachi Elite LaChrom HPLC with autosampler (Pleasanton, Calif.). The HPLC method was modified from previously published method. Skidan I et al., J Chromatogr B Analyt Technol Biomed Life Sci 879:1610-1616 (2011). The mobile phase consisted of either 70:30 acetonitrile:water (DM-PIT-1) or 60:40 acetonitrile:water (NCL-176, NCL-179, NCL-198, NCL-240) with a flow rate of 1 mL/min. Detection of drug was performed at a wavelength corresponding to a peak on the absorption spectrum (DM-PIT-1: 320 nm, NCL-176: 260 nm, NCL-179: 295 nm, NCL-198: 295 nm, NCL-240: 300 nm). Sample injections were kept constant at 50 μL and the sample runtime was 10 min. Concentration of drug was determined by measuring the area under curve of the peak. Standard curves of stock drug in acetonitrile from concentrations of 10 μg/mL to 15 ng/mL were used to determine incorporation of drug in micelles. 5 μL of dialyzed drug-loaded micelles were diluted in 495 μL acetonitrile to destroy micelles.

Data set [3] is described as follows: Micellar drug release by dialysis. Type of data set: physicochemical. The following applies: 37° C. Here is the method: Drug-loaded micelles were analyzed for their in vitro drug release profile at 37° C. in 1×PBS pH 7.4 over 48 hrs. Micelles were prepared as described previously. 500 μL of drug-loaded micelles were aliquoted into Spectra/Pro® regenerated cellulose dialysis membranes with a MWCO of 1,000 Da and dialyzed against a large excess of 1×PBS pH 7.4. At predetermined times, dialysis bags were opened and aliquots of sample were taken and diluted with 200 μL acetonitrile. Drug concentration was determined by HPLC using previously described methods.

Data set [4] deals with U87MG human glioblastoma cells. Kind of data set: Cell viability of U87MG cells, ATP assay. Format: cell-based. As to conditions: Homo sapiens, U-87 MG, 24 h. Here is the method:
U87MG human glioblastoma cells were maintained in culture at 37° C., 5% CO2, complete medium for 24 h in the presence of various final concentrations of YK-NCL-176, YK-NCL-177, YK-NCL-178, YK-NCL-179, YK-NCL-180, YK-NCL-183, YK-NCL-184, YK-NCL-185, YK-NCL-186, YK-NCL-187, YK-NCL-188, YK-NCL-189, YK-NCL-190, YK-NCL-191, YK-NCL-192, YK-NCL-193, YK-NCL-194, YK-NCL-195, YK-NCL-196, YK-NCL-197, NK-YCL-198, or YK-NCL-199, each in DMSO, with or without 1 μg/mL TRAIL. DMSO alone was used as a negative control. Following the incubation, cell viability was measured using an ATP assay.

Data set [5] has as its system A2780 ovarian carcinoma. As to the kind of experiment: A2780 cell viability, CellTiter-Blue, free and micellar formulations. Type of data set: cell-based, human. The following applies: A2780, 24 h, free compound. As for the experimental part: Cell viability of A2780 ovarian carcinoma was measured using CellTiter-Blue® (Promega, Madison, Wis.) viability assay. Briefly, cells were seeded in 96-well plates according to proper cell densities (3,000-5,000 cells). After 24 h incubation in 5% CO2 at 37° C., cells were treated with formulations at various concentrations for 24 h in serum complete media. After 24 h treatment, media was removed, the wells were washed with serum complete media and replaced with 50 μL media and 10 μL CellTiter-Blue®. Cell viability was evaluated after 4 h of incubation at 37° C. at 5% CO2 by measuring the fluorescence (ex. 550 nm, em. 590 nm) using a Synergy HT multi-detection microplate reader (Biotek, Winooski, Vt.).

Where [6] appears, read: in DMSO, without TRAIL, read-out: EC50 alone.
Setting [7] is: with 1 μg/mL TRAIL, read-out: EC50 with TRAIL.

Regarding `Cc1cc(C)cc(C(=O)NC(=S)Nc2cc([N+](=O)[O-])ccc2O)c1` [DM-PIT-1, N-[(2-hydroxy-5-nitrophenyl)amino]carbonothioyl-3,5-dimethylbenzamide, reference compound], the “concentration at which cell viability was reduced by at least 50 percent” value in data set [1] (alone) was 25 µM. In addition, the “cell viability in combination with TRAIL” value in data set [1] (with 1 μg/mL TRAIL, versus compound alone) is “further reduced cell viability”. Also, the EC50 turned out to be 30.5 µM in data set [1] (setting [6]) and 18.7 µM in data set [1] (setting [7]). Also, the “Loading Eff.” value in data set [2] is on record as “slightly lower loading”. Besides, the “drug released from micelles” value in data set [3] (1×PBS pH 7.4, at 10 h) was “completely released”.

`COc1ccc(Cl)cc1-n1nncc1C(=O)c1ccccc1` [YK-NCL-177]: the concentration giving a half-maximal response (EC50) in data set [4] (setting [6]) and in data set [4] (setting [7]) was over 100 µM throughout.

In the case of `COc1ccc(Cl)cc1-n1cc(C(=O)c2ccccc2)nn1` [YK-NCL-178], the EC50 in data set [4] (setting [6]) and in data set [4] (setting [7]) was over 100 µM each time.

Regarding `Oc1ccc(Cl)cc1-n1cc(C(O)(c2ccccc2)c2cn(-c3cc(Cl)ccc3O)nn2)nn1` [YK-NCL-179, 2,2′-(4,4′-(hydroxy(phenyl)methylene)bis(1H-1,2,3-triazole-4,1-diyl))bis(4-chlorophenol)], the half-maximal effective concentration (EC50) in data set [4] (setting [6]) is 36.7 µM; in data set [4] (setting [7]) it was 20.4 µM. For the same molecule, the “drug released from micelles” value in data set [3] (1×PBS pH 7.4, after 48 h) is 40%. Further, in data set [5], the “cytotoxicity as free compound compared to DM-PIT-1” value is recorded as “improved cytotoxicity properties”.

As to `COc1ccc(Cl)cc1-n1cc(C(O)(c2ccccc2)c2cn(-c3cc(Cl)ccc3OC)nn2)nn1` [YK-NCL-180], the EC50 in data set [4] (setting [6]) and in data set [4] (setting [7]) was over 100 µM in each case.

Turning to `Cc1cc(C)cc(C(=O)c2cn(-c3ccc(Cl)cc3O)nn2)c1` [YK-NCL-183], the half-maximal effective concentration (EC50) was over 100 µM in data set [4] (setting [6]) and 64.4 µM in data set [4] (setting [7]).

In the case of `Cc1ccc(O)c(-n2cc(C(=O)c3ccccc3)nn2)c1` [YK-NCL-184], the EC50 in data set [4] (setting [6]) and in data set [4] (setting [7]) was over 100 µM in each case.

As for `Cc1cccc(O)c1-n1cc(C(=O)c2ccccc2)nn1` [YK-NCL-185], the EC50 was found to be 8.1 µM in data set [4] (setting [6]) and 8 µM in data set [4] (setting [7]).

In the case of `O=C(c1ccc2ccccc2c1)c1cn(-c2cc(Cl)ccc2O)nn1` [YK-NCL-186], the EC50 in data set [4] (setting [6]) and in data set [4] (setting [7]) was over 100 µM throughout.

For `Cc1cccc(O)c1-n1cc(C(=O)c2ccc3ccccc3c2)nn1` [YK-NCL-187], the values for the EC50 in data set [4] (setting [6]) and in data set [4] (setting [7]) were 85.2 µM and 74.9 µM, respectively.

For `Cc1ccc(O)c(-n2cc(C(=O)c3ccc4ccccc4c3)nn2)c1` [YK-NCL-188], the EC50 in data set [4] (setting [6]) and in data set [4] (setting [7]) was over 100 µM in each case.

For `O=C(c1ccc2ccccc2c1)c1cn(-c2ccc([N+](=O)[O-])cc2O)nn1` [YK-NCL-189], the concentration for a half-maximal effect (EC50) in data set [4] (setting [6]) and in data set [4] (setting [7]) was over 100 µM throughout.

For the molecule `Cc1cc(C)cc(C(=O)c2cn(-c3cc(Cl)ccc3O)nn2)c1` [YK-NCL-190], the EC50 in data set [4] (setting [6]) was found to be 57.8 µM; in data set [4] (setting [7]) it was 30.6 µM.

For the molecule `O=C(c1ccccc1)c1cn(-c2ccc(Cl)cc2O)nn1` [YK-NCL-191], the EC50 in data set [4] (setting [6]) is 48.9 µM; in data set [4] (setting [7]) it was 42.3 µM.

Consider `Cc1cc(C)cc(C(=O)c2cn(-c3c(C)cccc3O)nn2)c1` [YK-NCL-192], for which the EC50 in data set [4] (setting [6]) was 104 µM; in data set [4] (setting [7]), 98.4 µM.

In the case of `Cc1cc(C)cc(C(=O)c2cn(-c3cc(C)ccc3O)nn2)c1` [YK-NCL-193], the half-maximal effective concentration (EC50) in data set [4] (setting [6]) and in data set [4] (setting [7]) was over 100 µM each time.

Consider `Cc1cc(C)cc(C(=O)c2cn(-c3ccc([N+](=O)[O-])cc3O)nn2)c1` [YK-NCL-194], for which the EC50 in data set [4] (setting [6]) was 89.1 µM; in data set [4] (setting [7]), 70.5 µM.

As for `CC(C)c1ccc(C(=O)c2cn(-c3cc(Cl)ccc3O)nn2)cc1` [YK-NCL-195], the results for the EC50 in data set [4] (setting [6]) and in data set [4] (setting [7]) were 64.1 µM and 41.6 µM, respectively.

`Cc1cccc(O)c1-n1cc(C(=O)c2ccc(C(C)C)cc2)nn1` [YK-NCL-196]: the EC50 in data set [4] (setting [6]) and in data set [4] (setting [7]) was over 100 µM throughout.

On to `Cc1ccc(O)c(-n2cc(C(=O)c3ccc(C(C)C)cc3)nn2)c1` [YK-NCL-197], for which the 50% effective concentration (EC50) in data set [4] (setting [6]) and in data set [4] (setting [7]) was over 100 µM each time.

`CC(C)c1ccc(C(=O)c2cn(-c3ccc([N+](=O)[O-])cc3O)nn2)cc1` [YK-NCL-199]: the EC50 in data set [4] (setting [6]) is over 100 µM; in data set [4] (setting [7]), 95.3 µM.

Consider `Cc1cccc(O)c1-n1cc(C(O)(c2cc(C(F)(F)F)cc(C(F)(F)F)c2)c2cn(-c3c(C)cccc3O)nn2)nn1` [YK-NCL-217], for which the EC50 in data set [1] (setting [6]) stood at 50.9 µM; in data set [1] (setting [7]) it was 13.5 µM.

In the case of `Cc1cccc(O)c1-n1cc(C(O)(c2ccccc2)c2cn(-c3c(C)cccc3O)nn2)nn1` [YK-NCL-218], the results for the 50% effective concentration (EC50) in data set [1] (setting [6]) and in data set [1] (setting [7]) were over 100 µM and 22.8 µM, respectively.

As to `Cc1ccc(O)c(-n2cc(C(O)(c3ccccc3)c3cn(-c4cc(C)ccc4O)nn3)nn2)c1` [YK-NCL-219], the EC50 in data set [1] (setting [6]) worked out at 24.1 µM; in data set [1] (setting [7]), 9.2 µM.

For `Cc1cc(C)cc(C(O)(c2cn(-c3c(C)cccc3O)nn2)c2cn(-c3c(C)cccc3O)nn2)c1` [YK-NCL-220], the EC50 in data set [1] (setting [6]) is over 100 µM; in data set [1] (setting [7]), 16.9 µM.

Take `O=C(NCc1cn(-c2cc(Cl)ccc2O)nn1)c1cc(C(F)(F)F)cc(C(F)(F)F)c1` [YK-NCL-234]: the EC50 in data set [1] (setting [6]) stood at 16.2 µM; in data set [1] (setting [7]) it was 14 µM.

On to `Oc1ccc(Cl)cc1-n1cc(CC(O)(c2ccccc2)c2cn(-c3cc(Cl)ccc3O)nn2)nn1` (stereo not shown) [YK-NCL-241], for which the concentration giving a half-maximal response (EC50) in data set [1] (setting [6]) and in data set [1] (setting [7]) was over 100 µM each time.

B1: TRAIL: Tumor necrosis factor (TNF)-related apoptosis-inducing ligand; recombinant His6-tagged human TRAIL produced in E. coli (protein, UniProt P50591 1-281, looked up)
Tumor necrosis factor ligand …: MAMMEVQGGPSLGQTCVLIVIFTVLLQSLCVAVTYVYFTNELKQMQDKYSKSGIACFLKEDDSYWDPNDEESMNSPCWQVKWQLRQLVRKMILRTSEETISTVQEKQQNISPLVRERGPQRVAAHITGTRGRSNTLSSPNSKNEKALGRKINSWESSRSGHSFLSNLHLRNGELVIHEKGFYYIYSQTYFRFQEEIKENTKNDKQMVQYIYKYTSYPDPILLMKSARNSCWSKDAEYGLYSIYQGGIFELKENDRIFVSVTNEHLIDMDHEASFFGAFLVG
modifications: His6 tag
notes: Tumor necrosis factor (TNF)-related apoptosis-inducing ligand; recombinant His6-tagged human TRAIL produced in E. coli
As to B1, in data set [1] (alone, 1 μg/mL), the “effect on cell viability” value was “essentially no effect on cell viability”.
